These results are taken from PMC6424980, “Distinct G protein-coupled receptor phosphorylation motifs modulate arrestin affinity and activation and global conformation” (Nature Communications, 2019).

One assay has as its system arrestin-1 (F85A, F197A). The assay can be described thus: Limited trypsin digestion of arrestin-1 in presence of peptide. Particulars: arrestin:peptide 1:1.2, 35 °C, SDS PAGE. The class given is biochemical, bovine. The source says:
Synthesized cDNAs of bovine arrestin-1, human arrestin-2 and human arrestin-3 were ordered from Genewiz, amplified by PCR and cloned (Supplementary Information Table 5) into the pET-15b vector (Novagen), using the Gibson Assembly protocol. The constructs contained an N-terminal hexa histidine tag linked by a linker that contained a Tobacco Etch Virus cleavage site (TEV; […]). PCR was used to introduce the monomerizing arrestin-1 mutations (F85A, F197A)[58]. Note that this mutant was employed for fluorescence anisotropy, trypsin digestion, and NMR experiments. Wild-type arrestin-2 and -3 were used for fluorescence anisotropy and trypsin digestion experiments. […] The arrestin-1 in this construct had the wild-type sequence. Note that this construct differs slightly from that previously published[59],[60] and was optimized for purification. We verified the functionality of this fusion construct using the standard centrifugal pull-down assay using phosphorylated rhodopsin in native ROS membranes.
Arrestin (60 µg) was mixed at a 1 to 1.2 molar ratio with peptide and preincubated at RT for 5 min before 1 μl of 0.15 mg/ml trypsin stock was added. The enzymatic digestion was carried out at 35 °C (20 mM Bis-Tris propane pH 7.0, 150 mM NaCl, 10 mM 2‑Mercaptoethanol and 2 mM EDTA). At certain time points (5, 15, 30, 60, 90 min), 5 μl aliquots were quenched with heat incubation in the presence of 20 μl SDS loading buffer (95 °C, 5 min) and then subjected to SDS PAGE. Bands were visualized with InstantBlue (Expedeon).

The subject of another assay is arrestin-1. The assay can be described thus: [15N,1H]TROSY NMR titration of arrestin-1 with peptide. The class given is binding, bovine. Particulars: peptide:arrestin-1 up to 10:1. As to the method:
^2H,^15N,^13C-labeled arrestin-1 aliquots were thawed quickly under running water, transferred to 30 kDa-cutoff Vivaspin (0.5 ml, Sartorius) centrifugal spin concentrators, and concentrated to approximately 600 μM. The concentrator was immediately transferred into a beaker filled with 400 ml of NMR buffer 1 or 2 (see below) carried by a floatation device. The dialysis was performed at 4 °C overnight. On the next day the concentration was determined by UV absorbance at 280 nm (molar extinction coefficient 26,360/mol/cm). […] The dialysis was performed at 4 °C overnight, and the peptide concentration was determined by its absorbance at 205 nm (molar extinction coefficient: 54,310/mol/cm). […]
NMR measurements were performed on Bruker Avance III-HD 600 or 900 MHz spectrometer using a CTCI cryo-cooled probehead. […] Pulse lengths were calibrated for ^1H manually and for ^13C/^15N using an in-house automated procedure. pH was monitored using the position of the phosphate signal in NMR buffer 2 as an internal reference and varied by no more than 0.03 pH units during peptide titration experiments. [^15N,^1H]TROSY experiments were recorded with internal ETH pulse sequences, whereas 3D triple resonance TROSY experiments were recorded using the manufacturer’s pulse sequences. […]

Assay [1] addresses fully phosphorylated peptide 7P of the bovine rhodopsin C-terminus (bovine). Briefly: fluorescence polarisation; fluorescence anisotropy; 20 nM fluorescently labelled peptide, 11-step serial dilution of arrestin; 20 mM Bis-Tris propane pH 7.0, 150 mM NaCl, 8 mM 2-mercaptoethanol, 2% BSA, 0.02% Tween-20; RT; one-to-one binding model. For orientation: Fluorescence polarisation rises when a labelled molecule tumbles more slowly, as on binding a larger partner.

Assay [2] concerns the target bovine arrestin-1 with the monomerizing mutations F85A, F197A (bovine, UniProt P08168 2-404, F85A | F197A). The assay can be described thus: FP.

Non-standard residues stand in square brackets, D forms with d. No end group written: not given here. pT = C[C@@H](OP(=O)(O)O)[C@H](N)C(=O)O; pS = N[C@@H](COP(=O)(O)O)C(=O)O

On to “CDDEASTTVSKTETSQVAPA [0P, nonphosphorylated peptide analog of the bovine rhodopsin C-terminus with N-terminal cysteine]”, for which the “limited trypsin digest pattern of arrestin-1 (conformational change, C-tail displacement)” value in the assay on arrestin-1 (F85A, F197A) is listed as “three major bands”. In the assay with arrestin-1, the “NMR chemical shift / peak changes in arrestin-1 (in words)” value is listed as “some minor changes in peak intensity”.
Take “bovine arrestin-1 with the monomerizing mutations F85A, F197A (from UniProt P08168 2-404) (natural protein)”: the equilibrium dissociation constant (Kd) in assay [1] was below 250 µM.
Turning to C(fluorescein‑5‑maleimide)DDEASTTVSK[pT]ET[pS]QVAPA (also: third phosphorylation site not given here) [tri-phosphorylated peptide 3Pd of the bovine rhodopsin C-terminus], binding in assay [2] was characterised by a dissociation constant (Kd) of 94 µM.

As usually defined, the Kd is the constant that tells how readily two partners part at equilibrium. A high value points to lower affinity.
